Results on 14 compounds are retold here after US10239836B2, “Benzenecarbothioccyclopenta[c] pyrrole-1,3-dione compounds and process for synthesis thereof” (Council of Scientific & Industrial Research, priority 2014, dated 2019).

A short description of data set [1]: Cytotoxicity assay (MTT viability). In kind it is cell-based, Mouse. The following applies: mouse; RAW 264.7 cells, MTT, 24 h treatment, serum free. The method, then: (§1) Mouse macrophage cell line RAW 264.7 was maintained in laboratory at 37° C. in
(§2) RPMI-1640 media supplemented with 10% heat-inactivated fetal bovine serum (FBS) and penicillin/streptomycin.
(§3) Viability of cultured cells was determined by (4,5-dimethylthiazol-2-yl)-2,5-diphenyltetrazolium bromide (MTT; Sigma) as described earlier (1). RAW 264.7 was seeded in triplicate at a density of 2×10^4 cells per well on a 96-well plate. […] MTT solution (0.5 mg/ml) was then added to each well and incubate for 4 h at 37° C. At the end of the incubation period, the medium was removed and the resulting purple formazan was solubilized with acidic isopropanol (0.1 N HCl in absolute isopropanol), and the absorbance was read at 570 nm using Biorad Microplate reader (Biorad, USA).

The test system of data set [2] is LPS induced NO generation in RAW 264.7 cells. Nature of the data set: Inhibition of LPS induced NO generation (nitrite, Griess reagent). The data set is classed as cell-based, Mouse. The following applies: for IC50: RAW 264.7 cells, LPS 1 μg/ml, 24 h, serum-free, read-out: NO inhibition (B) IC50; for Selectivity index (A/B): cytotoxicity IC50 / NO inhibition IC50, RAW 264.7 cells. As for the experimental part: as §1, §2
Nitrite, a stable oxidized product of NO, was measured in culture supernatant using Griess reagent (Sigma Aldrich) according to a previously reported method (2). After overnight seeding in 96-well plate (2×10^4 cells/well), RAW 264.7 cell was treated with lipopolysaccharide (LPS; Sigma) at a concentration of 1 μg/ml along with different doses of compounds (as determined from cytotoxicity assay) in serum-free culture for 24 h. Following treatment, media was collected and centrifuged at 2,000 rpm for 5 min to remove cellular debris. 50 μl of this media was then reacted with equal volume of Griess reagent for 15 min at room temperature in dark and absorbance was taken at 540 nm using Microplate reader (Biorad, USA). Nitrite concentrations were determined using standard solutions of sodium nitrite prepared in cell culture medium.

The subject of another data set is H1N1 virus. The following applies: MDCK cells; Yang et al., Organic Letter 2013; cited from earlier work.
A further data set concerns RAW 264.7 cells. The experiment in a line: Cytotoxicity assay (MTT viability). The data set is classed as cell-based, Mouse. The method, then:
as §1, §2, §3

Where two headings read alike, the source gives them in different places.

Compound `O=C(S[C@]12CCC[C@H]1C(=O)NC2=O)c1ccc(F)cc1` (relative stereo) [Compound 20, S-((3aR*,6aS*)-1,3-Dioxohexahydrocyclopenta[c]pyrrol-3a(1H)-yl) 4-fluorobenzothioate] had a melting point of 186 to 187 °C. The IC50 at 24 h in data set [1] stood at 384 µM. Also, the IC50 in data set [2] (Mus musculus, RAW264.7) stood at 390 µM. The “Selectivity index (A/B)” value in data set [2] was 0.9841.
Take `O=C(S[C@@]12CC[C@H](O)[C@@H]1C(=O)NC2=O)c1ccc(O)cc1` [Nitrosporeusine A]: in the data set on H1N1 virus, the “inhibitory activities against the H1N1 virus” value is listed as “exhibited inhibitory activities”.
Compound `O=C(S[C@]12CC[C@@H](O)[C@H]1C(=O)NC2=O)c1ccccc1` (relative stereo) [Compound 15, S-((3aR*,6R*,6aS*)-6-Hydroxy-1,3-dioxohexahydrocyclopenta[c]pyrrol-3a(1H)-yl) benzothioate] came in with a melting point of 185 to 186 °C. Half-maximal inhibition in data set [1] (IC50 at 24 h) required 479 µM. The IC50 in data set [2] (Mus musculus, RAW264.7) turned out to be 72.4 µM. In addition, the “Selectivity index (A/B)” value in data set [2] came out at 6.622.
Taken in the same sequence, the figures for `O=C(S[C@@]12CC[C@@H](O)[C@@H]1C(=O)NC2=O)c1ccc(F)cc1` (relative stereo) [Compound 11, S-((3aS*,6R*,6aR*)-6-Hydroxy-1,3-dioxohexahydrocyclopenta[c]pyrrol-3a(1H)-yl) 4-fluorobenzothioate] were 184 to 186 °C, 474 µM, 318 µM and 1.49.
Consider `O=C(S[C@@]12CC[C@@H](O)[C@@H]1C(=O)NC2=O)c1ccc(O)cc1` [Nitrosporeusine B], for which the “inhibitory activities against the H1N1 virus” value in the data set on H1N1 virus was “exhibited inhibitory activities”.
With `CC(=O)O[C@@H]1CCC2=C1C(=O)NC2=O` [(−)-5, (R)-1,3-dioxo-1,2,3,4,5,6-hexahydrocyclopenta[c]pyrrol-4-yl], the 50% inhibitory concentration (IC50) was determined as 128 µM with RAW 264.7 cells and 867 µM in data set [2].
`O=C1NC(=O)C2=C1CCC2SC(=O)c1cccs1` (stereo not drawn) [Compound 29, S-(1,3-Dioxo-1,2,3,4,5,6-hexahydrocyclopenta[c]pyrrol-4-yl) thiophene-2-carbothioate] displayed a melting point of 138 to 139 °C. For the same compound, the IC50 at 24 h in data set [1] worked out at 26.7 µM. Besides, in data set [2] (Mus musculus, RAW264.7), the IC50 came to 65 µM. In addition, the “Selectivity index (A/B)” value in data set [2] is 0.4108.
Taken in the same sequence, the figures for `O=C(Cc1ccccc1)SC12CCC=C1C(=O)NC2=O` (stereo not drawn) [Compound 27, S-(1,3-Dioxo-2,3,4,5-tetrahydrocyclopenta[c]pyrrol-3a(1H)-yl) 2-phenylethanethioate] were 155 to 158 °C, 93.1 µM, 30.6 µM and 3.042.
As to `CC(=O)SC12CCC=C1C(=O)NC2=O` (stereo not drawn) [Compound 26, S-(1,3-Dioxo-2,3,4,5-tetrahydrocyclopenta[c]pyrrol-3a(1H)-yl)ethanethioate], the melting point lay in the range of 170 to 172 °C. For the same compound, in data set [1], the IC50 at 24 h came to 184 µM. Besides, the IC50 in data set [2] (Mus musculus, RAW264.7) was found to be 20.5 µM. The “Selectivity index (A/B)” value in data set [2] is given as 9.
In the same order, the values of `CC(=O)S[C@@]12CC[C@@H](O)[C@@H]1C(=O)NC2=O` (relative stereo) [Compound 8, S-((3aS*,6R*,6aR*)-6-Hydroxy-1,3-dioxohexahydrocyclopenta[c]pyrrol-3a(1H)-yl) ethanethioate] are 120 to 129 °C, 857 µM, 833 µM and 1.029.
Taken in the same sequence, the figures for `O=C(S[C@]12CCC[C@H]1C(=O)NC2=O)c1ccccc1Cl` (relative stereo) [Compound 21, S-((3aR*,6aS*)-1,3-Dioxohexahydrocyclopenta[c]pyrrol-3a(1H)-yl) 2-chlorobenzothioate] were 188 to 190 °C, 834 µM, 59.8 µM and 13.95.
Taken in the same sequence, the figures for `O=C(S[C@@]12CC[C@@H](O)[C@@H]1C(=O)NC2=O)c1ccccc1` (relative stereo) [Compound 16, S-((3aS*,6R*,6aR*)-6-Hydroxy-1,3-dioxohexahydrocyclopenta[c]pyrrol-3a(1H)-yl) benzothioate] were 180 to 182 °C, 17100 µM, 65.2 µM and 261.7025.
Compound `O=C(S[C@@]12CC[C@H](O)[C@@H]1C(=O)NC2=O)c1ccccc1Cl` (relative stereo) [Compound 13, S-((3aS*,6S*,6aR*)-6-Hydroxy-1,3-dioxohexahydrocyclopenta[c]pyrrol-3a(1H)-yl) 2-chlorobenzothioate] had a melting point of 173 to 174 °C. Further, the midpoint of inhibition in data set [1], the IC50 at 24 h, lay at 668 µM. Besides, the IC50 in data set [2] (Mus musculus, RAW264.7) was 127 µM. Besides, in data set [2], the “Selectivity index (A/B)” value came out at 5.245.
Taken in the same sequence, the figures for `CC(=O)S[C@]12CCC[C@H]1C(=O)NC2=O` (relative stereo) [Compound 18, S-((3aR*,6aS*)-1,3-Dioxohexahydrocyclopenta[c]pyrrol-3a(1H)-yl) ethanethioate] were 120 to 122 °C, 674 µM, 59.2 µM and 11.39.
